# Results published in patent US20050107289A1, “Anti-microbial peptides and compositions” (priority 2001, published 2005).
# Counter-ions that a name gives are not always drawn. Like-named read-outs stand apart in the source and are kept apart here. Non-standard residues stand in square brackets, D forms with d. Residues, ends and D or L forms follow the SMILES beside them.
# Key:
# murine red blood cells = assay: Red blood cell hemolysis; type: cell-based, mouse
# Protocol: Selectivity of cyclic peptides for bacterial over mammalian cells was evaluated by measuring red blood cell hemolytic activities as described in Tosteson, M. T. Holmes, S. J., Razin, M. and Tosteson, D. C. Melittin Lysis of Red Cells, J. Membrane Biol. 87, 35-44(1985). Heparinized murine blood was centrifuged at 1000×g for 10 minutes. The supernatant and the buffy coat were removed. Erythrocytes were washed three times with 0.9% saline solution and then resuspended to a concentration of 5% in saline containing 10% FBS (v/v). Red blood cells were then treated with serial dilutions of test peptides in a 96 well plate at 37° C. for 30 minutes. Control samples included a saline solution arid 1% Triton X-100 as 0 and 100% hemolysis, respectively. In some cases, mellitin was used as a further control. Mellitin is a linear peptide that is hemolytic against mammalian red blood cells in vitro at a concentration of about 10 μg/ml. Plates were centrifuged at 1000 g for 10 minutes. Aliquots of the supernatant were diluted 2 times with saline solution and the absorbance was measured at 560 nm.
# [1] = system: vancomycin-resistant Enterococus faecalis (VRE)(ATCC 51575); type: cell-based, Enterococcus faecalis; parameters: key to VRE (in vitro activity): peptide concentration in μg/ml (broth dilution assay); conditions: Table 9
# Protocol: (§1) The antimicrobial activity of the peptides was determined using a broth dilution assay essentially as descried in the guidelines of the National Committee for […] (NCCLS) [National Committee for Clinical Laboratory Standards. Methods for dilution antimicrobial susceptibility tests for bacteria that grow aerobically. Fourth edition. Approved Standard (1997). Document M7-A4. […] The microdilution method has the advantages of requiring less amount of peptide for each assay and the possibility of multiple simultaneous inoculations and was used in most studies. Several of the strains of bacteria tested are further described in Table 3.
# (§2) Preparation of peptide solutions. Stock peptide solutions were prepared in 5% DMSO in aq. sucrose (9%). Determination of peptide concentrations was done by quantitative HPLC analysis using known concentrations of internal standards and/or by measuring UV absorption of tryptophane-containing peptide solutions in H2O (λ=280 εTrp: 5690). Serial 2-fold dilutions were made in the above DMSO/aq. sucrose (9%) mixture with concentrations ranging approximately 400-2 μg/ml and aliquots were dispensed in test tubes (100 μl) for the macrodilution test or in microtiter plates (20 μl) for the microdilution assays.
# (§3) Inoculum preparation. Overnight cultures of different microorganisms grown in suitable media were diluted 4000 times to an approximate inoculum size of 2.5×10^5 cfu/ml.
# (§4) Macrodilution method. Macrodilution methods were performed using procedures similar to those described in the National Committee for Clinical Laboratory Standards. Methods for dilution antimicrobial susceptibility tests for bacteria that grow aerobically. Fourth edition. Approved Standard (1997). Document M7-A4. (NCCLS,Villanova, Pa., 1997). Two ml aliquots of the above inoculum were dispensed to test tubes containing different peptide solutions.
# (§5) Microdilution method. Microdilution methods were performed using procedures similar to those described in the National Committee for Clinical Laboratory Standards. Methods for dilution antimicrobial susceptibility tests for bacteria that grow aerobically. Fourth edition. Approved Standard (1997). Document M7-A4.
# [2] = system: S. aureus (MRSA) ATCC 33591; type: cell-based, Staphylococcus aureus; conditions: Table 9
# Protocol: as §1, §2, §3, §4, §5
# [3] = media c: Brain Heart Infusion (BHI)
# [4] = media b: cation adjusted Meuller Hinton broth (MHBII)
# [5] = media a: anti-microbial media-3 (AM-3)
SMILES,RBC Hemolysis (HD50) (murine red blood cells),"VRE (in vitro activity) [1, 3]","MRSA (in vitro activity) [2, 4]",VRE (in vitro activity) ([1]; media a: AM-3),"MRSA (in vitro activity) [2, 5]"
"CC(C)C[C@@H]1NC(=O)[C@@H](Cc2c[nH]c3ccccc23)NC(=O)[C@H](CCCCN)NC(=O)[C@@H](Cc2c[nH]cn2)NC(=O)[C@H](CCC(N)=O)NC(=O)[C@@H](Cc2c[nH]cn2)NC(=O)[C@H](CCCCN)NC(=O)[C@@H](Cc2c[nH]c3ccccc23)NC1=O [SEQ ID NO:87, [KHQHKWLW]] (cyclo(K[dH]Q[dH]K[dW]L[dW]))",200,12,6,,
"CC(C)C[C@H]1NC(=O)[C@H](Cc2c[nH]c3ccccc23)NC(=O)[C@@H](CCCCN)NC(=O)[C@H](CCCCN)NC(=O)[C@@H](CO)NC(=O)[C@H](CCCCN)NC(=O)[C@@H](CC(C)C)NC(=O)[C@H](Cc2c[nH]c3ccccc23)NC1=O [SEQ ID NO:77, [KSKKWLWL]] (cyclo(K[dS]K[dK]W[dL]W[dL]))",>220,27,13,,
"CC(C)C[C@H]1NC(=O)[C@H](Cc2c[nH]c3ccccc23)NC(=O)[C@@H](Cc2ccccc2)NC(=O)[C@H](CCCCN)NC(=O)[C@@H](Cc2ccccc2)NC(=O)[C@H](CCCCN)NC(=O)[C@@H](CC(C)C)NC(=O)[C@H](Cc2c[nH]c3ccccc23)NC1=O [SEQ ID NO:100, [KFWLWLKF]] (cyclo(K[dF]W[dL]W[dL]K[dF]))",>78,,,10,11
"CC(C)C[C@H]1NC(=O)[C@H](Cc2c[nH]c3ccccc23)NC(=O)[C@@H](CO)NC(=O)[C@H](CCCCN)NC(=O)[C@@H](CO)NC(=O)[C@H](CCCNC(=N)N)NC(=O)[C@@H](CC(C)C)NC(=O)[C@H](Cc2c[nH]c3ccccc23)NC1=O [SEQ ID NO:84, [KSWLWLRS]] (cyclo(K[dS]W[dL]W[dL]R[dS]))",>62,,,12,9
"CC(C)C[C@H]1NC(=O)[C@H](Cc2ccccc2)NC(=O)[C@@H](Cc2c[nH]cn2)NC(=O)[C@H](CCCCN)NC(=O)[C@@H](Cc2c[nH]cn2)NC(=O)[C@H](CCCCN)NC(=O)[C@@H](CC(C)C)NC(=O)[C@H](Cc2c[nH]c3ccccc23)NC1=O [SEQ ID NO:72, [KHKHFLWL]] (cyclo(K[dH]K[dH]F[dL]W[dL]))",200,16,8,,
"CC[C@H](C)[C@@H]1NC(=O)[C@@H](CO)NC(=O)[C@H](CCCCN)NC(=O)[C@@H]([C@H](C)O)NC(=O)[C@H]([C@@H](C)CC)NC(=O)[C@@H](CCCNC(=N)N)NC1=O [SEQ ID NO:132, [KSIRIT]] (cyclo(K[dS]I[dR]I[dT]))",175,>200,>200,,
"C[C@H]1NC(=O)[C@H](CCC(N)=O)NC(=O)[C@@H](C)NC(=O)[C@H](CCCCN)NC(=O)[C@@H](C)NC(=O)[C@H](Cc2c[nH]c3ccccc23)NC(=O)[C@@H](C)NC(=O)[C@H](CCCCN)NC1=O [SEQ ID NO:95, [KAQAKAWA]] (cyclo(K[dA]Q[dA]K[dA]W[dA]))",>200,>200,>200,,
"CC(C)C[C@H]1NC(=O)[C@H](C(C)C)NC(=O)[C@@H](CC(C)C)NC(=O)[C@H](C(C)C)NC(=O)[C@@H](CCCCN)NC(=O)[C@H](CO)NC(=O)[C@@H](CO)NC(=O)[C@H](CCCCN)NC1=O [SEQ ID NO:80, [KSSKVLVL]] (cyclo(K[dS]S[dK]V[dL]V[dL]))",>180,180,22,,
"CC(C)C[C@H]1NC(=O)[C@H](CCCCN)NC(=O)[C@@H](Cc2c[nH]cn2)NC(=O)[C@H](CCCCN)NC(=O)[C@@H](CC(C)C)NC(=O)[C@H](Cc2c[nH]c3ccccc23)NC(=O)[C@@H](CC(C)C)NC(=O)[C@H](Cc2c[nH]c3ccccc23)NC1=O [SEQ ID NO:50, [KHKLWLWL]] (cyclo(K[dH]K[dL]W[dL]W[dL]))",150,18,9,,
"CC(C)C[C@H]1NC(=O)[C@H](CCCCN)NC(=O)[C@@H](Cc2c[nH]cn2)NC(=O)[C@H](CCCCN)NC(=O)[C@@H](CC(C)C)NC(=O)[C@H](Cc2c[nH]c3ccccc23)NC(=O)[C@@H](CC(C)C)NC(=O)[C@H](Cc2ccccc2)NC1=O [SEQ ID NO:49, [KHKLFLWL]] (cyclo(K[dH]K[dL]F[dL]W[dL]))",200,25,12,,
"CC(C)C[C@H]1NC(=O)[C@H](Cc2c[nH]c3ccccc23)NC(=O)[C@@H](CCCNC(=N)N)NC(=O)[C@H](CCC(N)=O)NC(=O)[C@@H](CCCCN)NC(=O)[C@H](Cc2c[nH]c3ccccc23)NC(=O)[C@@H](CC(C)C)NC(=O)[C@H](Cc2c[nH]c3ccccc23)NC1=O [[KQRWLWLW-HCl] (8), cyclo-(D-Lys-Gln-D-Arg-Trp-D-Leu-Trp-D-Leu-Trp)] (cyclo([dK]Q[dR]W[dL]W[dL]W))",70,8,8,,
"CC(C)C[C@H]1NC(=O)[C@H](C)NC(=O)[C@@H](CCCCN)NC(=O)[C@H](CO)NC(=O)[C@@H](CO)NC(=O)[C@H](CCCCN)NC(=O)[C@@H](CC(C)C)NC(=O)[C@H](C)NC1=O [SEQ ID NO:78, [KSSKALAL]] (cyclo(K[dS]S[dK]A[dL]A[dL]))",>240,>240,>240,,
"CC(C)C[C@H]1NC(=O)[C@H](Cc2c[nH]c3ccccc23)NC(=O)[C@@H](CCCNC(=N)N)NC(=O)[C@H](CCCCN)NC(=O)[C@@H](CO)NC(=O)[C@H](CCCCN)NC(=O)[C@@H](CC(C)C)NC(=O)[C@H](Cc2c[nH]c3ccccc23)NC1=O [SEQ ID NO:75, [KRWLWLKS]] (cyclo(K[dR]W[dL]W[dL]K[dS]))",>48,,,22,9
"CC(C)C[C@@H]1NC(=O)[C@@H](Cc2c[nH]c3ccccc23)NC(=O)[C@H](CCCCN)NC(=O)[C@@H](CCCNC(=N)N)NC(=O)[C@H](CCCCN)NC(=O)[C@@H](Cc2c[nH]c3ccccc23)NC1=O [SEQ ID NO:125, [KRKWLW]] (cyclo(K[dR]K[dW]L[dW]))",>174,,,33,9
"CC(C)C[C@H]1NC(=O)[C@H](CCCCN)NC(=O)[C@@H](CC(C)C)NC(=O)[C@H](Cc2c[nH]c3ccccc23)NC(=O)[C@@H](CC(C)C)NC(=O)[C@H](Cc2c[nH]c3ccccc23)NC(=O)[C@@H](CC(C)C)NC(=O)[C@H](Cc2c[nH]c3ccccc23)NC1=O [SEQ ID NO:41, [KLWLWLWL]] (cyclo(K[dL]W[dL]W[dL]W[dL]))",30,25,12,,
"CC(C)C[C@H]1NC(=O)[C@H](Cc2c[nH]c3ccccc23)NC(=O)[C@@H](Cc2c[nH]c3ccccc23)NC(=O)[C@H](CCCCN)NC(=O)[C@@H](Cc2c[nH]c3ccccc23)NC(=O)[C@H](CCCCN)NC(=O)[C@@H](CC(C)C)NC(=O)[C@H](Cc2c[nH]c3ccccc23)NC1=O [SEQ ID NO:44, [KWWLWLKW]] (cyclo(K[dW]W[dL]W[dL]K[dW]))",>58,,,4,4
